Measurements taken from the CheMixHub ionic liquid set.

Assay: xn = mol fraction of the nth substance listed

CCCCCCCCCCCCCCn1cc[n+](C)c1.[Br-] + CC[N+](CC)(CC)CC.[Br-] + O
electrical conductivity [S/m], 101 kPa, frequency 0.001 MHz
Conditions	298.15 K	308.15 K	318.15 K
x1 = 4.74e-06, x2 = 0	0.00249	0.00401	0.00409
x1 = 4.74e-06, x2 = 1.802e-05	0.0133	0.0165	0.0198
x1 = 4.74e-06, x2 = 3.604e-05	0.0213	0.0264	0.0318
x1 = 4.74e-06, x2 = 9.009e-05	0.0427	0.053	0.063
x1 = 9.35e-06, x2 = 0	0.00459	0.00671	0.00708
x1 = 9.35e-06, x2 = 1.802e-05	0.0152	0.0187	0.0223
x1 = 9.36e-06, x2 = 3.604e-05	0.023	0.0283	0.0345
x1 = 9.36e-06, x2 = 9.009e-05	0.0444	0.0542	0.0648
x1 = 1.386e-05, x2 = 0	0.0065	0.0093	0.0101
x1 = 1.386e-05, x2 = 1.802e-05	0.017	0.0209	0.025
x1 = 1.386e-05, x2 = 3.604e-05	0.0249	0.0306	0.0365
x1 = 1.387e-05, x2 = 9.009e-05	0.0459	0.056	0.0665
x1 = 1.825e-05, x2 = 0	0.00834	0.011	0.0127
x1 = 1.826e-05, x2 = 1.802e-05	0.0185	0.0231	0.0271
x1 = 1.826e-05, x2 = 3.604e-05	0.0264	0.0325	0.0389
x1 = 1.827e-05, x2 = 9.009e-05	0.0472	0.058	0.0681
x1 = 2.252e-05, x2 = 0	0.0101	0.0135	0.0154
x1 = 2.253e-05, x2 = 1.802e-05	0.0201	0.0251	0.0294
x1 = 2.253e-05, x2 = 3.604e-05	0.0281	0.0343	0.0416
x1 = 2.255e-05, x2 = 9.009e-05	0.0479	0.0594	0.0705
x1 = 2.669e-05, x2 = 0	0.0119	0.0154	0.0182
x1 = 2.669e-05, x2 = 1.802e-05	0.0216	0.0268	0.0318
x1 = 2.67e-05, x2 = 3.604e-05	0.0295	0.0364	0.0432
x1 = 2.671e-05, x2 = 9.009e-05	0.049	0.0611	0.0723
x1 = 3.076e-05, x2 = 0	0.0136	0.0173	0.0206
x1 = 3.077e-05, x2 = 1.802e-05	0.0232	0.0286	0.0341
x1 = 3.077e-05, x2 = 3.604e-05	0.0307	0.0381	0.0451
x1 = 3.079e-05, x2 = 9.009e-05	0.0493	0.0618	0.0738
x1 = 3.474e-05, x2 = 0	0.0152	0.0199	0.0232
x1 = 3.475e-05, x2 = 1.802e-05	0.0248	0.0305	0.0362
x1 = 3.475e-05, x2 = 3.604e-05	0.0315	0.0399	0.0472
x1 = 3.477e-05, x2 = 9.009e-05	0.0495	0.0619	0.0748
x1 = 3.862e-05, x2 = 0	0.0167	0.0218	0.0253
x1 = 3.862e-05, x2 = 1.802e-05	0.0261	0.0324	0.0384
x1 = 3.863e-05, x2 = 3.604e-05	0.0318	0.0405	0.0492
x1 = 3.865e-05, x2 = 9.009e-05	0.0494	0.0621	0.0752
x1 = 4.24e-05, x2 = 0	0.0183	0.0238	0.028
x1 = 4.241e-05, x2 = 1.802e-05	0.0265	0.0333	0.0404
x1 = 4.242e-05, x2 = 3.604e-05	0.0322	0.0409	0.0511
x1 = 4.244e-05, x2 = 9.009e-05	0.0497	0.0622	0.0753
x1 = 4.613e-05, x2 = 0	0.0192	0.0252	0.0303
x1 = 4.614e-05, x2 = 1.802e-05	0.0271	0.034	0.042
x1 = 4.615e-05, x2 = 3.604e-05	0.0326	0.0414	0.0518
x1 = 4.617e-05, x2 = 9.009e-05	0.0499	0.0623	0.0756
x1 = 4.973e-05, x2 = 0	0.0199	0.0265	0.0322
x1 = 4.974e-05, x2 = 1.802e-05	0.0274	0.0345	0.0432
x1 = 4.975e-05, x2 = 3.604e-05	0.0329	0.0419	0.0525
x1 = 4.978e-05, x2 = 9.009e-05	0.05	0.0627	0.0758
x1 = 5.334e-05, x2 = 0	0.0204	0.0273	0.0335
x1 = 5.335e-05, x2 = 1.802e-05	0.0278	0.035	0.0441
x1 = 5.336e-05, x2 = 3.604e-05	0.0333	0.0423	0.0531
x1 = 5.339e-05, x2 = 9.009e-05	0.0501	0.063	0.0761
x1 = 5.676e-05, x2 = 0	0.0209	0.0282	0.0345
x1 = 5.677e-05, x2 = 1.802e-05	0.0283	0.0354	0.0449
x1 = 5.678e-05, x2 = 3.604e-05	0.0336	0.0428	0.0534
x1 = 5.681e-05, x2 = 9.009e-05	0.0503	0.063	0.0763
x1 = 6e-05, x2 = 0	0.0213	0.0288	0.0356
x1 = 6.001e-05, x2 = 1.802e-05	0.0286	0.0359	0.0455
x1 = 6.003e-05, x2 = 3.604e-05	0.0338	0.0432	0.0541
x1 = 6.006e-05, x2 = 9.009e-05	0.0505	0.0633	0.0768
x1 = 6.343e-05, x2 = 0	0.0217	0.0294	0.0365
x1 = 6.344e-05, x2 = 1.802e-05	0.0289	0.0364	0.0461
x1 = 6.345e-05, x2 = 3.604e-05	0.0341	0.0435	0.0542
x1 = 6.349e-05, x2 = 9.009e-05	0.0507	0.0636	0.0773
x1 = 6.667e-05, x2 = 0	0.0221	0.03	0.0372
x1 = 6.668e-05, x2 = 1.802e-05	0.0293	0.0368	0.0467
x1 = 6.67e-05, x2 = 3.604e-05	0.0344	0.0439	0.0548
x1 = 6.673e-05, x2 = 9.009e-05	0.0508	0.0637	0.0777
x1 = 6.973e-05, x2 = 0	0.0225	0.0305	0.0377
x1 = 6.975e-05, x2 = 1.802e-05	0.0296	0.0373	0.0473
x1 = 6.976e-05, x2 = 3.604e-05	0.0346	0.0442	0.0552
x1 = 6.98e-05, x2 = 9.009e-05	0.0511	0.0641	0.0781
x1 = 7.28e-05, x2 = 0	0.0229	0.0311	0.0383
x1 = 7.281e-05, x2 = 1.802e-05	0.0299	0.0375	0.0478
x1 = 7.282e-05, x2 = 3.604e-05	0.0349	0.0445	0.0555
x1 = 7.287e-05, x2 = 9.009e-05	0.0512	0.0646	0.0785
x1 = 7.586e-05, x2 = 0	0.0233	0.0316	0.0389
x1 = 7.587e-05, x2 = 1.802e-05	0.0302	0.0382	0.0482
x1 = 7.589e-05, x2 = 3.604e-05	0.0351	0.0453	0.0561
x1 = 7.593e-05, x2 = 9.009e-05	0.0516	0.065	0.0786
x1 = 7.892e-05, x2 = 0	0.0236	0.0321	0.0396
x1 = 7.894e-05, x2 = 1.802e-05	0.0304	0.0389	0.0485
x1 = 7.895e-05, x2 = 3.604e-05	0.0353	0.0455	0.0568
x1 = 7.9e-05, x2 = 9.008e-05	0.0519	0.0654	0.0789
x1 = 8.18e-05, x2 = 0	0.024	0.0326	0.0408
x1 = 8.182e-05, x2 = 1.802e-05	0.0307	0.0391	0.0492
x1 = 8.184e-05, x2 = 3.604e-05	0.0356	0.0458	0.0571
x1 = 8.188e-05, x2 = 9.008e-05	0.0522	0.0658	0.0792
x1 = 8.451e-05, x2 = 0	0.0243	0.0329	0.0414
x1 = 8.452e-05, x2 = 1.802e-05	0.0308	0.0395	0.0496
x1 = 8.454e-05, x2 = 3.604e-05	0.0358	0.0462	0.0573
x1 = 8.459e-05, x2 = 9.008e-05	0.0524	0.066	0.0796
x1 = 8.739e-05, x2 = 0	0.0246	0.0333	0.0418
x1 = 8.741e-05, x2 = 1.802e-05	0.0312	0.0399	0.0502
x1 = 8.742e-05, x2 = 3.604e-05	0.036	0.0464	0.058
x1 = 8.747e-05, x2 = 9.008e-05	0.0526	0.0665	0.0801

CC(=O)C(=O)O + CC[N+](CC)(CC)CC.[Cl-]
101.3 kPa, x2 = 0.3333
Conditions	viscosity [mPa·s]
298.15 K	89.1
308.15 K	57.5
318.15 K	37.5
328.15 K	24.05
338.15 K	16.05

O=C(O)CO + CC[N+](CC)(CC)CC.[Cl-]
101 kPa, x1 = 0.6667
Conditions	viscosity [mPa·s]
303.15 K	268
323.15 K	87
353.15 K	27

CC[N+](CC)(CC)CC.O=[N+]([O-])[O-] + CC[NH3+].O=[N+]([O-])[O-]
101 kPa, frequency 0.00293 MHz
Conditions	electrical conductivity [S/m]
293.15 K, x1 = 0.15	1.01
303.15 K, x1 = 0.0501	2.13
303.15 K, x1 = 0.15	1.42
303.15 K, x1 = 0.35	0.565
308.15 K, x1 = 0.2001	1.34
313.15 K, x1 = 0.1	2.33
318.15 K, x1 = 0.2995	1.04
323.15 K, x1 = 0.15	2.46

101 kPa
Conditions	viscosity [mPa·s]
293.15 K, x1 = 0.15	74.1
303.15 K, x1 = 0.0501	35.5
303.15 K, x1 = 0.15	50
303.15 K, x1 = 0.35	131
308.15 K, x1 = 0.2001	50.4
313.15 K, x1 = 0.1	30.3
318.15 K, x1 = 0.2995	50.9
323.15 K, x1 = 0.15	26.2
328.15 K, x1 = 0.2001	26.6
328.15 K, x1 = 0.2567	32.4
328.15 K, x1 = 0.35	48.3
333.15 K, x1 = 0.15	20.1
343.15 K, x1 = 0.15	15.7
348.15 K, x1 = 0.2001	16
348.15 K, x1 = 0.35	26.3
353.15 K, x1 = 0.1	11
353.15 K, x1 = 0.35	23.4

C[N+]1(CCOCCOCCOCC[N+]2(C)CCCC2)CCCC1.O=S(=O)([N-]S(=O)(=O)C(F)(F)F)C(F)(F)F.O=S(=O)([N-]S(=O)(=O)C(F)(F)F)C(F)(F)F + CC[n+]1ccn(C)c1.N#C[N-]C#N + O=S(=O)([N-]S(=O)(=O)C(F)(F)F)C(F)(F)F.[Li+]
100 kPa, x1 = 0.1489, x2 = 0.7484
Conditions	electrical conductivity [S/m]
298 K	0.698
303 K	0.827
313 K	1.1
323 K	1.43
333 K	1.81
343 K	2.21

F[P-](F)(F)(F)(F)F.[Li+] + CC[n+]1ccn(C)c1.O=S(=O)([N-]S(=O)(=O)C(F)(F)F)C(F)(F)F
electrical conductivity [S/m], 101 kPa
Conditions	x2 = 0.7088	x2 = 0.729	x2 = 0.8022	x2 = 0.8765	x2 = 0.9623
288.15 K	–	0.124	0.208	0.431	0.52
298.15 K	0.195	0.222	0.355	0.651	0.775
333.15 K	0.816	0.865	1.17	1.72	1.95

F[P-](F)(F)(F)(F)F.[Li+] + CC[n+]1ccn(C)c1.O=S(=O)([O-])C(F)(F)F
electrical conductivity [S/m], 101 kPa
Conditions	x1 = 0.007746	x1 = 0.01537	x2 = 0.9673	x2 = 0.9746
288.15 K	0.614	0.559	–	0.532
298.15 K	0.898	0.816	0.786	0.785
333.15 K	2.3	2.08	2.08	2.02
